Results on 13 molecules are retold here after patent publication US20170166598A1, “HETEROARYL COMPOUNDS FOR KINASE INHIBITION” (ARIAD PHARMACEUTICALS, INC., priority 2014, published 2017).

Structures are written as SMILES.

Format in all cases: cell-based
Experiment [1] concerns the target T1, human EGFR exon 20 insertion ASV (V769_D770insASV) (Homo sapiens, UniProt P00533, INS769ASV).
T1 construct: expressed in transfected cells; host or cells: Ba/F3 (murine pro-B) cells transduced with lentivirus from pLVX-IRES puro
Kind of experiment: Ba/F3-EGFR-Exon20-ASV cell anti-proliferative assay (CellTiter 96 MTS, 72 h). The conditions noted are these: Ba/F3-EGFR-Exon20-ASV cells. An outline of the steps:
(§1)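 Ba/F3 cells made IL-3-independent by lentiviral EGFR exon 20 NPG or ASV insertion were exposed 72 h at 37 °C to 4-fold dilutions of compound (top 10,000 nM). Viability read by MTS tetrazolium conversion, absorbance 490 nm after 2 h.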

The target of experiment [2] is T2, human EGFR exon 20 insertion NPG (H773_V774insNPG) (Homo sapiens, UniProt P00533, INS772GNP).
T2 construct: expressed in transfected cells; host or cells: Ba/F3 (murine pro-B) cells transduced with lentivirus from pLVX-IRES puro
T2 sequence (P00533 with tags, fused parts or gaps INS772GNP): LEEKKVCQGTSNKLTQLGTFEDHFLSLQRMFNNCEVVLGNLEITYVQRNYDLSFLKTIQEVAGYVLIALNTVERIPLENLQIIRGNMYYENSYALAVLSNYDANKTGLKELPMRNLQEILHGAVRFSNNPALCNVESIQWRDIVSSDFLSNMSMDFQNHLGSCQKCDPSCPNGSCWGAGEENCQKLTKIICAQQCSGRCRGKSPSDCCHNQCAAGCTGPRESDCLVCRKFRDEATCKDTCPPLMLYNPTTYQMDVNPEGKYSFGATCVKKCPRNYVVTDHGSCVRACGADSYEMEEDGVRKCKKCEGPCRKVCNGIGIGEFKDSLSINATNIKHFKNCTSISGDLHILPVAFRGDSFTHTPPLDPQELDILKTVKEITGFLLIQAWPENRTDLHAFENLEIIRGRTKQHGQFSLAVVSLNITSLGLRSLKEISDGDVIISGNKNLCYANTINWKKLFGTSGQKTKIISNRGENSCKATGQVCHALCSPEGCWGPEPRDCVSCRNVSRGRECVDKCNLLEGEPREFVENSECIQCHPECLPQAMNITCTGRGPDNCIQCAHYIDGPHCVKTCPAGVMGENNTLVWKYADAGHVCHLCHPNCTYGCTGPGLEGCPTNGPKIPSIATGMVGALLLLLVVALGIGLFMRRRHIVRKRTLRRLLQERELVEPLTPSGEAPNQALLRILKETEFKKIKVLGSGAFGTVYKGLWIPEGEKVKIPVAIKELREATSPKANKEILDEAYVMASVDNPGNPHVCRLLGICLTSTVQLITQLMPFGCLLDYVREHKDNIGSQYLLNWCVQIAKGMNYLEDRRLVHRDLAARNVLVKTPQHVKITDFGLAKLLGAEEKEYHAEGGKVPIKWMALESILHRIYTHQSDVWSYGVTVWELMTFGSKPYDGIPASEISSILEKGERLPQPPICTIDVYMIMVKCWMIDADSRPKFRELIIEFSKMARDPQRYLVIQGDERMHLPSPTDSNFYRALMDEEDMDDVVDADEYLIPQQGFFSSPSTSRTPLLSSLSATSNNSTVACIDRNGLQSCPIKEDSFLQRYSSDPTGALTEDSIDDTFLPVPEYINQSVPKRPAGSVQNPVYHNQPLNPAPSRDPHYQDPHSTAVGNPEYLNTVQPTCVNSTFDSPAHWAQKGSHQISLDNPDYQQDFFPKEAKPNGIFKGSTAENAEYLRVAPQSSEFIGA
As to the kind of experiment: Ba/F3-EGFR-Exon20-NPG cell anti-proliferative assay (CellTiter 96 MTS, 72 h). Conditions: Ba/F3-EGFR-Exon20-NPG cells. Summed up: as §1

The target in experiment [3] is T3, human EGFR E746-A750 deletion and T790M Mutation (Homo sapiens, UniProt P00533, DEL746-750/T790M).
T3 construct: expressed in transfected cells; host or cells: Ba/F3 (murine pro-B) cells transduced with lentivirus from pLVX-IRES puro
T3 sequence (P00533 with tags, fused parts or gaps DEL746-750/T790M): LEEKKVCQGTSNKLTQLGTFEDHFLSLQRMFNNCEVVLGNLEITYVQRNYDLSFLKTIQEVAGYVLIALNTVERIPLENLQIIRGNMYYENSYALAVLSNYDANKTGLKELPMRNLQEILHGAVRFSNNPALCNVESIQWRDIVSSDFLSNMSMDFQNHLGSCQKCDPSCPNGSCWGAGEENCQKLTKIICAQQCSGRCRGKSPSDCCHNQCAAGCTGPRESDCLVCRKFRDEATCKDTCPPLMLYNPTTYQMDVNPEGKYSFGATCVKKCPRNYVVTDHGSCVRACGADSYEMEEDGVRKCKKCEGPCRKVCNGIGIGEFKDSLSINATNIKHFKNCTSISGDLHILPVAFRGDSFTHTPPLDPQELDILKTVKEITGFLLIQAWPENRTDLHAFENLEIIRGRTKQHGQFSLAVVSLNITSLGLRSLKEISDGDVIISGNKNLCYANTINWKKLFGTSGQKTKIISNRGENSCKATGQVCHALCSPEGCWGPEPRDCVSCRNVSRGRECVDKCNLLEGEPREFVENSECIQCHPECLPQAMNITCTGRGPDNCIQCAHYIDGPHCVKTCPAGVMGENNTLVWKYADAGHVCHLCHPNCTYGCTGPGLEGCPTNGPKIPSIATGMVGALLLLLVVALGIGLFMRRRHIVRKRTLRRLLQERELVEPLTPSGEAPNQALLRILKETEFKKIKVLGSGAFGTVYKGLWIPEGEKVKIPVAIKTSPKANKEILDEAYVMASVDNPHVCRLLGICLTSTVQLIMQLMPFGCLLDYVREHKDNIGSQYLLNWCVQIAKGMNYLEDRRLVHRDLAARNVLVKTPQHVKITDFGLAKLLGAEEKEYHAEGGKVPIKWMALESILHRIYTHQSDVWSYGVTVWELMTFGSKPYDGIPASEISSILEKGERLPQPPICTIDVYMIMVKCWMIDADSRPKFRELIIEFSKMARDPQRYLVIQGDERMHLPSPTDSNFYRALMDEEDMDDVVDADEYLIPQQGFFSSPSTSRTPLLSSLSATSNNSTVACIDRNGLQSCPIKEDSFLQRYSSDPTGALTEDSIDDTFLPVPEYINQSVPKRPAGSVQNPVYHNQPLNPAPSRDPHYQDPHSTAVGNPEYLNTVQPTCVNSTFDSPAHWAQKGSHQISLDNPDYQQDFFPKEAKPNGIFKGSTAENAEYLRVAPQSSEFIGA
As to the kind of experiment: Ba/F3-EGFR-Del/T790M cell anti-proliferative assay (CellTiter 96 MTS, 72 h). The conditions noted are these: Ba/F3-EGFR-Del/T790M cells. An outline of the steps: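 Ba/F3 cells made IL-3-independent by lentiviral human EGFR E746-A750 del/T790M, puromycin-selected. Cells treated 72 h at 37 °C with compound, 4-fold dilutions from 10,000 nM top concentration. Viability read by MTS tetrazolium-to-formazan conversion, absorbance at 490 nm after 2 h with reagent.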

Experiment [4] deals with T4, Her2 exon 20 YVMA insertion (A775_G776ins YVMA) (Homo sapiens, UniProt P04626, INS775YVMA).
T4 construct: expressed in transfected cells; host or cells: Ba/F3 (murine pro-B) cells transduced with lentivirus from pLVX-IRES puro
T4 sequence (P04626 with tags, fused parts or gaps INS775YVMA): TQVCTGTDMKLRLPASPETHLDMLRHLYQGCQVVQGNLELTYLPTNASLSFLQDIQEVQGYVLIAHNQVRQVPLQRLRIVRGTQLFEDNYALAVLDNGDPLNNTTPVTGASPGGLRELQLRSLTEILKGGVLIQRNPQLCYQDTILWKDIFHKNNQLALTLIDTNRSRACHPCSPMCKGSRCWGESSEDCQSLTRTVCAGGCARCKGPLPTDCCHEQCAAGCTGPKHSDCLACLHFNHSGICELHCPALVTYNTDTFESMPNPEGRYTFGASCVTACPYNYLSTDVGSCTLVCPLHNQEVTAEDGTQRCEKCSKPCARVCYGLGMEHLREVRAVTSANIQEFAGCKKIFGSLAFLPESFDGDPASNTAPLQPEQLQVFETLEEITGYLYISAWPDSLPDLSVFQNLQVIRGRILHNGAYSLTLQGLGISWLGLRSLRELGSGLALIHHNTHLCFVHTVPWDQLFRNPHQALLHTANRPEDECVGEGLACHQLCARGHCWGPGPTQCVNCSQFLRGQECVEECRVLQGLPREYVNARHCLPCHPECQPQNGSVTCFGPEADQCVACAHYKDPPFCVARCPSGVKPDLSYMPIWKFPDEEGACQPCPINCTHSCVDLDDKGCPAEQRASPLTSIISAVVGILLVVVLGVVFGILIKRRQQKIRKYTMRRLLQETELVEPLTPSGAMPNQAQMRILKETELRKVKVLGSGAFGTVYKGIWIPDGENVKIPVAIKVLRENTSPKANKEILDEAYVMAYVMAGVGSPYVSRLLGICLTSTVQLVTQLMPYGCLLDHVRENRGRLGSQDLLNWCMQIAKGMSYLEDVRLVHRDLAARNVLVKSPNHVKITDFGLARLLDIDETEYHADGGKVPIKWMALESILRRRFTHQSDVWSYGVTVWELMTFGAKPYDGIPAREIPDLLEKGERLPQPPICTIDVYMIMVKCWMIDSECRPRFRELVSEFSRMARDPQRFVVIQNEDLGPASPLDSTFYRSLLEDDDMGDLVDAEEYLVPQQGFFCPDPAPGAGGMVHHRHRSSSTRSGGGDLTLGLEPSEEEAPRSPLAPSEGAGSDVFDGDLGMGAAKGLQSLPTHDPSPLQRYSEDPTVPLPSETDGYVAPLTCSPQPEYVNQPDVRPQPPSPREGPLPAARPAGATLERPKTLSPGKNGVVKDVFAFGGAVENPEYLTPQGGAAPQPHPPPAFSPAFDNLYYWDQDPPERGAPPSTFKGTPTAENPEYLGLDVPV
As to the kind of experiment: Ba/F3-Her2 Exon20 YVMA cell anti-proliferative assay (CellTiter 96 MTS, 72 h). The conditions noted are these: Ba/F3-Her2 Exon20 YVMA cells. An outline of the steps:
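IL-3-independent Ba/F3 cells transduced with the YVMA insertion were treated with compound in 4-fold dilutions from 10,000 nM top. After 72 h at 37° C, viable cells were quantified by MTS tetrazolium conversion, with absorbance read at 490 nm after 2 h.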

T1 sequence (P00533 with tags, fused parts or gaps INS769ASV): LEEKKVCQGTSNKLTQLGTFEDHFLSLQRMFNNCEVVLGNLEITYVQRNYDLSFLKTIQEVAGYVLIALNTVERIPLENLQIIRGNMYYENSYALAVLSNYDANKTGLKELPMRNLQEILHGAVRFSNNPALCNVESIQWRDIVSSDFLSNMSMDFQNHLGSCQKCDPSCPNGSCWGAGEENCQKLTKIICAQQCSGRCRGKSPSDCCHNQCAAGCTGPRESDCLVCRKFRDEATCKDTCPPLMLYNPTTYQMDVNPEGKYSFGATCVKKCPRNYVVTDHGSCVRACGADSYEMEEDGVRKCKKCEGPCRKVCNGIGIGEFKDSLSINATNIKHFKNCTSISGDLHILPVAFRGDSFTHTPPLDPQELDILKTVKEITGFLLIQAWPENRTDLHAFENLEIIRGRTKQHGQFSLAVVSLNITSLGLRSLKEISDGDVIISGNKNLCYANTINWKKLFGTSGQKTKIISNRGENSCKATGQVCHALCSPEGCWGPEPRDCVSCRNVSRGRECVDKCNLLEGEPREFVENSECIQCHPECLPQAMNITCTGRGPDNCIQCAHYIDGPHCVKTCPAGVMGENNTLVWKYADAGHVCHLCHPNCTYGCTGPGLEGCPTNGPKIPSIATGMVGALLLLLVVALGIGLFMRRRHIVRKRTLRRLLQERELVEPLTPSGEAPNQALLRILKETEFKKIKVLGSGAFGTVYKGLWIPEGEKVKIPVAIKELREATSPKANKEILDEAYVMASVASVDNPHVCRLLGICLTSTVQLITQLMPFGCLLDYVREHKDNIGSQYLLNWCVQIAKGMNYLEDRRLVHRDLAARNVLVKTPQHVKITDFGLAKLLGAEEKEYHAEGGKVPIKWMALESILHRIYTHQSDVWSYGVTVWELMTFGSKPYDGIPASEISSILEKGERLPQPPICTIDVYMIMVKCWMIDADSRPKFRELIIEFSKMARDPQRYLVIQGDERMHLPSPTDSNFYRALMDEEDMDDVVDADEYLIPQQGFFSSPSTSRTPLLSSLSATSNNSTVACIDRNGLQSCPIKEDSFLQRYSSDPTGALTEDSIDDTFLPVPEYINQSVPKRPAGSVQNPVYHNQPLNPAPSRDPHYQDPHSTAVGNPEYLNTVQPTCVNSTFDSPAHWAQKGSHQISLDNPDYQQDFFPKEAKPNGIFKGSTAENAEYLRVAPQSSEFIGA

For orientation: IC50 means the concentration at which inhibition is half-maximal. Low readings indicate greater potency in that assay, high ones weaker potency in that assay. With `C=CC(=O)Nc1cc(Nc2ncc(OCCOC)c(-c3cn4c5c(cccc35)CCC4)n2)c(OC)cc1N(C)CCN(C)C` [Example 104], the 50% inhibitory concentration (IC50) is less than 100 nM in experiment [1], less than 100 nM in experiment [2] and 100 to 500 nM in experiment [4]. Besides, the “EGFR exon 19 deletion and exon 20 T790M mutation IC50” value in experiment [3] is recorded as “A (IC50 value for the indicated mutant below about 100 nM)”.

For the molecule `C=CC(=O)Nc1cc(Nc2ncc(-c3cnn(C)c3C)c(-c3cn4c5c(cccc35)CCC4)n2)c(OC)cc1N(C)CCN(C)C` [Example 102], the IC50 in experiment [1], in experiment [2] and in experiment [4] was less than 100 nM in each case. Also, in experiment [3], the “EGFR exon 19 deletion and exon 20 T790M mutation IC50” value is “A (IC50 value for the indicated mutant below about 100 nM)”.

Turning to `C=CC(=O)Nc1cc(Nc2ncc(OC(F)F)c(-c3cn4c5c(cccc35)CCC4)n2)c(OC)cc1N(C)CCN(C)C` [Example 64, N-(5-((5-(difluoromethoxy)-4-(5,6-dihydro-4H-pyrrolo[3,2,1-ij]quinolin-1-yl)pyrimidin-2-yl)amino)-2-((2-(dimethylamino)ethyl)-(methyl)amino)-4-methoxyphenyl)acrylamide], the half-inhibitory concentration (IC50) in experiment [1] was less than 100 nM; in experiment [2], less than 100 nM; in experiment [4] it was 100 to 500 nM. Further, the “EGFR exon 19 deletion and exon 20 T790M mutation IC50” value in experiment [3] is on record as “A (IC50 value for the indicated mutant below about 100 nM)”.

As to `C=CC(=O)Nc1cc(Nc2ncc(CC)c(-c3cn4c5c(cccc35)CCC4)n2)c(OC)cc1N(C)CCN(C)C` [Example 2, N-(5-((4-(5,6-dihydro-4H-pyrrolo[3,2,1-ij]quinolin-1-yl)-5-ethylpyrimidin-2-yl)amino)-2-((2-(dimethylamino)ethyl)(methyl)amino)-4-methoxyphenyl)acrylamide], the IC50 in experiment [1] is less than 100 nM; in experiment [2], less than 100 nM; in experiment [4] it was 100 to 500 nM. In addition, the “EGFR exon 19 deletion and exon 20 T790M mutation IC50” value in experiment [3] was “A (IC50 value for the indicated mutant below about 100 nM)”.

For the molecule `C=CC(=O)Nc1cc(Nc2ncc(-c3cnn(CC)c3)c(-c3cn4c5c(cccc35)CCC4)n2)c(OC)cc1N(C)CCN(C)C` [Example 99], the IC50 in experiment [1], in experiment [2] and in experiment [4] was less than 100 nM each time. Also, the “EGFR exon 19 deletion and exon 20 T790M mutation IC50” value in experiment [3] is on record as “A (IC50 value for the indicated mutant below about 100 nM)”.

Regarding `C=CC(=O)Nc1cc(Nc2ncc(-c3nc(C)no3)c(-c3cn4c5c(cccc35)CCC4)n2)c(OC)cc1N(C)CCN(C)C` [Example 86], the IC50 in experiment [1], in experiment [2] and in experiment [4] was less than 100 nM each time. Further, the “EGFR exon 19 deletion and exon 20 T790M mutation IC50” value in experiment [3] is on record as “A (IC50 value for the indicated mutant below about 100 nM)”.

As to `C=CC(=O)Nc1cc(Nc2ncc(N(C)S(C)(=O)=O)c(-c3cn4c5c(cccc35)CCC4)n2)c(OC)cc1N(C)CCN(C)C` [Example 59, N-(5-((4-(5,6-dihydro-4H-pyrrolo[3,2,1-ij]quinolin-1-yl)-5-(N-methylmethylsulfonamido)pyrimidin-2-yl)amino)-2-((2-(dimethylamino)ethyl)(methyl)amino)-4-methoxyphenyl)acrylamide], the IC50 in experiment [1], in experiment [2] and in experiment [4] was greater than 1000 nM throughout. Also, the “EGFR exon 19 deletion and exon 20 T790M mutation IC50” value in experiment [3] is “D (IC50 value for the indicated mutant greater than about 1 μM)”.

Regarding `C=CC(=O)Nc1cc(Nc2ncc(CCCOC)c(-c3cn4c5c(cccc35)CCC4)n2)c(OC)cc1N(C)CCN(C)C` [Example 33, N-(5-((4-(5,6-dihydro-4H-pyrrolo[3,2,1-ij]quinolin-1-yl)-5-(3-methoxypropyl)pyrimidin-2-yl)amino)-2-((2-(dimethylamino)ethyl)(methyl)amino)-4-methoxyphenyl)acrylamide], the 50% inhibitory concentration (IC50) in experiment [1], in experiment [2] and in experiment [4] was less than 100 nM throughout. Further, in experiment [3], the “EGFR exon 19 deletion and exon 20 T790M mutation IC50” value is “A (IC50 value for the indicated mutant below about 100 nM)”.

With `C=CC(=O)Nc1cc(Nc2ncc(C#N)c(-c3cn4c5c(cccc35)N(C)C(=O)C4)n2)c(OC)cc1N1CC[C@@H](N(C)C)C1` [Example 55, (R)-N-(5-((5-cyano-4-(1-methyl-2-oxo-2,3-dihydro-1H-pyrrolo[1,2,3-de]quinoxalin-6-yl)pyrimidin-2-yl)amino)-2-(3-(dimethylamino)pyrrolidin-1-yl)-4-methoxyphenyl)acrylamide], the IC50 is 100 to 500 nM in experiment [1], less than 100 nM in experiment [2] and 100 to 500 nM in experiment [4]. Also, the “EGFR exon 19 deletion and exon 20 T790M mutation IC50” value in experiment [3] is recorded as “A (IC50 value for the indicated mutant below about 100 nM)”.

Take `C=CC(=O)Nc1cc(Nc2ncc(C#N)c(-c3cn4c5c(cccc35)N(C)CC4)n2)c(OC)cc1N(C)CCN(C)C` [Example 56, N-(5-((5-cyano-4-(1-methyl-2,3-dihydro-1H-pyrrolo[1,2,3-de]quinoxalin-6-yl)pyrimidin-2-yl)amino)-2-((2-(dimethylamino)ethyl)-(methyl)amino)-4-methoxyphenyl)acrylamide]: the figures for the IC50 in experiment [1], in experiment [2] and in experiment [4] were 500 to 1000 nM, 100 to 500 nM and 500 to 1000 nM, respectively. In addition, in experiment [3], the “EGFR exon 19 deletion and exon 20 T790M mutation IC50” value is reported as “A (IC50 value for the indicated mutant below about 100 nM)”.

For the molecule `C=CC(=O)Nc1cc(Nc2nccc(-c3c(N4CC[C@@H](O)C4)n4c5c(cccc35)CCC4)n2)c(OC)cc1N(C)CCN(C)C` [Example 74, (R)-N-(2-((2-(dimethylamino)ethyl)-(methyl)amino)-5-((4-(2-(3-hydroxypyrrolidin-1-yl)-5,6-dihydro-4H-pyrrolo[3,2,1-ij]quinolin-1-yl)pyrimidin-2-yl)amino)-4-methoxyphenyl)-acrylamide], the figures for the half-maximal inhibitory concentration (IC50) in experiment [1], in experiment [2] and in experiment [4] were less than 100 nM, less than 100 nM and 100 to 500 nM, respectively. Also, the “EGFR exon 19 deletion and exon 20 T790M mutation IC50” value in experiment [3] is on record as “A (IC50 value for the indicated mutant below about 100 nM)”.

Consider `C=CC(=O)Nc1cc(Nc2ncc(C#N)c(-c3cn4c5c(cccc35)OCC4)n2)c(OC)cc1N1CC(N(C)C)C1` [Example 6, N-(5-((5-cyano-4-(2,3-dihydro-[1,4]oxazino[2,3,4-hi]indol-6-yl)pyrimidin-2-yl)amino)-2-(3-(dimethylamino)azetidin-1-yl)-4-methoxyphenyl)acrylamide], for which the figures for the IC50 in experiment [1], in experiment [2] and in experiment [4] were 100 to 500 nM, less than 100 nM and 100 to 500 nM, respectively. Also, the “EGFR exon 19 deletion and exon 20 T790M mutation IC50” value in experiment [3] is on record as “A (IC50 value for the indicated mutant below about 100 nM)”.

For the molecule `C=CC(=O)Nc1cc(Nc2ncc(-c3ccnn3C)c(-c3cn4c5c(cccc35)CCC4)n2)c(OC)cc1N(C)CCN(C)C` [Example 53, N-(5-((4-(5,6-dihydro-4H-pyrrolo[3,2,1-ij]quinolin-1-yl)-5-(1-methyl-1H-pyrazol-5-yl)pyrimidin-2-yl)amino)-2-((2-(dimethylamino)ethyl)(methyl)amino)-4-methoxyphenyl)acrylamide], the IC50 in experiment [1], in experiment [2] and in experiment [4] was less than 100 nM in each case. In addition, the “EGFR exon 19 deletion and exon 20 T790M mutation IC50” value in experiment [3] is given as “A (IC50 value for the indicated mutant below about 100 nM)”.
